Source: PubChem BioAssay (NCI)
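Abbreviation: GI50, concentration required for 50% inhibition of growth. TGI marks complete inhibition of growth.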

Columns and labels:
Test in all cases: NCI anticancer screen, dose series, 384-well format
[1] = system: 786-0 renal
[2] = system: A498 renal
[3] = system: A549 NSCLC
[4] = system: ACHN renal
[5] = system: BT-549 breast
[6] = system: CAKI-1 renal
[7] = system: CCRF-CEM leukemia
[8] = system: COLO 205 colon
[9] = system: DU-145 prostate
[10] = system: EKVX NSCLC
[11] = system: HCC-2998 colon
[12] = system: HCT-116 colon
[13] = system: HCT-15 colon
[14] = system: HL-60(TB) leukemia
[15] = system: HOP-62 NSCLC
[16] = system: HOP-92 NSCLC
[17] = system: HS 578T breast
[18] = system: HT29 colon
[19] = system: IGROV1 ovarian
[20] = system: K-562 leukemia
[21] = system: KM12 colon
[22] = system: LOX IMVI melanoma
[23] = system: M14 melanoma
[24] = system: MALME-3M melanoma
[25] = system: MCF7 breast
[26] = system: MDA-MB-231 breast
[27] = system: MDA-MB-435 melanoma
[28] = system: MDA-MB-468 breast
[29] = system: MOLT-4 leukemia
[30] = system: NCI-H226 lung

O=C(Nc1ccc(O)c(NS(=O)(=O)c2ccc(F)cc2)c1)c1ccc(-c2ccccc2)cc1
GI50 [1]: 3.74 µM | TGI [1]: 12.6 µM | GI50 [2]: 3.57 µM | TGI [2]: 15.1 µM | GI50 [3]: 5.05 µM | TGI [3]: 17 µM | GI50 [4]: 6.99 µM | TGI [4]: 19.7 µM | GI50 [5]: 4.01 µM | TGI [5]: 13.1 µM | GI50 [6]: 5.16 µM | TGI [6]: 17.7 µM | GI50 [7]: 2.24 µM | TGI [7]: 4.11 µM | GI50 [8]: 11.5 µM | TGI [8]: 24 µM | GI50 [9]: 10.1 µM | TGI [9]: 21.8 µM | GI50 [10]: 4.13 µM | TGI [10]: 14 µM | GI50 [11]: 4.56 µM | TGI [11]: 10.3 µM | GI50 [12]: 3.71 µM | TGI [12]: 12.7 µM | GI50 [13]: 3.84 µM | TGI [13]: 11.8 µM | GI50 [14]: 1.55 µM | TGI [14]: 2.91 µM | GI50 [15]: 9.69 µM | TGI [15]: 21.4 µM | GI50 [16]: 4.12 µM | TGI [16]: 14.4 µM | GI50 [17]: 2.93 µM | TGI [17]: 15.5 µM | GI50 [18]: 12 µM | TGI [18]: 24.5 µM | GI50 [19]: 3.62 µM | TGI [19]: 12.2 µM | GI50 [20]: 3.68 µM | TGI [20]: 13.5 µM | GI50 [21]: 5.26 µM | TGI [21]: 18.3 µM | GI50 [22]: 3.87 µM | TGI [22]: 15 µM | GI50 [23]: 6.4 µM | TGI [23]: 19 µM | GI50 [24]: 4.06 µM | TGI [24]: 15.4 µM | GI50 [25]: 3.87 µM | TGI [25]: 15.4 µM | GI50 [26]: 3.36 µM | TGI [26]: 13.5 µM | GI50 [27]: 7.4 µM | TGI [27]: 20.2 µM | GI50 [28]: 2.08 µM | TGI [28]: 7.66 µM | GI50 [29]: 1.69 µM | TGI [29]: 3.12 µM | GI50 [30]: 8.98 µM
